Measurements taken from US8673892B2, “Phenyl bicyclic methyl azetidine derivatives as sphingosine-1 phosphate receptors modulators” (Allergan, Inc., priority 2011, dated 2014).

Biological target: T1, human S1P1 receptor (Homo sapiens, UniProt P21453)
T1 construct: expressed in transfected cells; membranes used
Assay: GTP γ35S binding assay for S1P1 activity
Type: biochemical
Conditions: membranes of cells stably expressing the S1P1 receptor; agonist-induced GTP γ35S binding; read-out: EC50 at the S1P1 receptor from GTP γ35S
Protocol: Compounds were synthesized and tested for S1P1 activity using the GTP γ^35S binding assay. These compounds may be assessed for their ability to activate or block activation of the human S1P1 receptor in cells stably expressing the S1P1 receptor.
GTP γ^35S binding was measured in the medium containing (mM) HEPES 25, pH 7.4, MgCl2 10, NaCl 100, dithitothreitol 0.5, digitonin 0.003%, 0.2 nM GTP γ^35S, and 5 μg membrane protein in a volume of 150 μl. Test compounds were included in the concentration range from 0.08 to 5,000 nM unless indicated otherwise. Membranes were incubated with 100 μM 5′-adenylylimmidodiphosphate for 30 min, and subsequently with 10 μM GDP for 10 min on ice. Drug solutions and membrane were mixed, and then reactions were initiated by adding GTP γ^35S and continued for 30 min at 25° C. Reaction mixtures were filtered over Whatman GF/B filters under vacuum, and washed three times with 3 mL of ice-cold buffer (HEPES 25, pH7.4, MgCl2 10 and NaCl 100). Filters were dried and mixed with scintillant, and counted for ^35S activity using a β-counter. Agonist-induced GTP γ^35S binding was obtained by subtracting that in the absence of agonist. Binding data were analyzed using a non-linear regression method. In case of antagonist assay, the reaction mixture contained 10 nM […] in the presence of test antagonist at concentrations ranging from 0.08 to 5000 nM.

T1 sequence (P21453 whole entry): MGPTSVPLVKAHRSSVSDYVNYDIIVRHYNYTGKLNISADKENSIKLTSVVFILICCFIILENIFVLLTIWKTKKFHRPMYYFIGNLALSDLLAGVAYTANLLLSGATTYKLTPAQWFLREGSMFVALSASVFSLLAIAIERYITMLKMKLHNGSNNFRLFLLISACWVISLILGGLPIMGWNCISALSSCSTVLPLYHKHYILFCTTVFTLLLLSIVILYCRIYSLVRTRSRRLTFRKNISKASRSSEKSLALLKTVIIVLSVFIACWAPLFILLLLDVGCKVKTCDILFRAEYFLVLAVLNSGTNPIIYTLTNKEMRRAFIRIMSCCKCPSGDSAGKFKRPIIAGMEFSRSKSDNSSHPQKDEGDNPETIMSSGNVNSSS

EC50: 1550 nM
SMILES: CCCCCCc1ccc(-c2ccc(CN3CC(C(=O)O)C3)c3ncccc23)cc1 [Compound 1, 1-{[5-(4-hexylphenyl)quinolin-8-yl]methyl}azetidine-3-carboxylic acid]
